Measured values taken from US12521441B2, “Modified IL-2 polypeptides and uses thereof” (Bright Peak Therapeutics AG, priority 2020, dated 2026).

How the values were obtained:
[1] = tested on: CD8 Teff cells (CD8+); assay: pStat5 induction in human primary pan T-cells, CD8 Teff subset; type: cell-based
Description: (§1) An experiment was performed to determine the effect of various IL-2 polypeptides on human T-cell populations. Primary pan T-cells (CD4+, CD8+ and Tregs T cells) were obtained from healthy donor buffy coat by peripheral blood mononuclear cell (PBMC) purification using ficoll gradient centrifugation followed by negative selection with magnetic beads and then cryopreserved until use. […] After incubation, cells were fixed and permeabilized using the Transcription Factor Phospho Buffer kit followed by a surface and intracellular immunostaining for CD4, CD8, CD25, FoxP3, CD45RA and pStat5 to enable cell subset identification and measurement of Stat5 (signal transducer and activator of transcription 5) phosphorylation levels. The FACS (fluorescence activated cell sorting) measurement was done either with a NovoCyte or a Quanteon Flow Cytometer from Acea.
(§2) pStat5 MFI ([…] fluorescence intensity) signals for the T-cell subsets shown in Table 12 were plotted against concentrations of aldesleukin or of modified IL-2 polypeptides. Half maximal effective concentration (EC50) was calculated based on a variable slope, four parameter analysis using GraphPad PRISM software.

[2] = target: T1, human IL2 receptor beta (CD122) (Homo sapiens, UniProt P14784); assay: Surface plasmon resonance binding to IL-2R beta monomer subunit; conditions: SPR
T1 construct: purchased Abcam Ab174003
T1 sequence (P14784 27-551): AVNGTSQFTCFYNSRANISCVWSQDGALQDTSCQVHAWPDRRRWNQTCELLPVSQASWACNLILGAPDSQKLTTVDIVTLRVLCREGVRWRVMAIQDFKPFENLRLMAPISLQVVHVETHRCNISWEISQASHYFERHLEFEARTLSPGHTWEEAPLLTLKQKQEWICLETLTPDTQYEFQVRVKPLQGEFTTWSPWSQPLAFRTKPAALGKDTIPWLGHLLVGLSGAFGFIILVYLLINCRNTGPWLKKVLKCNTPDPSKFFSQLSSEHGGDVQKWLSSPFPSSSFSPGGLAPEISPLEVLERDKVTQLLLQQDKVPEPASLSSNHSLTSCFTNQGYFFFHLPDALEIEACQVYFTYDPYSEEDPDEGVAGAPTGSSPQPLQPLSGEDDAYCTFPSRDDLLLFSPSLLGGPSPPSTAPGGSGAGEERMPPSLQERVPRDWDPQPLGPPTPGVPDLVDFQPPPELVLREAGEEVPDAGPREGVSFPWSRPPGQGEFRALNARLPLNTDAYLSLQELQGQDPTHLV
Description: (§3) The interaction of the IL-2 polypeptides with human IL-2 receptor subunits were measured with Surface Plasmon Resonance (SPR) technology at Crelux, a Wuxi AppTec company, Martinsried, GER. For these studies, anti-His antibodies were bound by amine coupling onto a CMS chip to capture 42 nM of His tagged human IL2 receptor alpha (Abcam, Ab221397) or of His tagged human IL2 receptor beta (Abcam, Ab174003). In other settings, 42 nM of alpha and beta IL2 receptors were mixed and pre-incubated for 30 min before capture of the alpha/beta heterodimer IL2 receptor.
(§4) Regeneration of the surface back to amine coupled anti His antibody was done after every concentration of analyte. To measure the protein association to the receptors, the samples were injected with a flow rate of 50 ul/min for 30 s, followed by 180s buffer only to detect the dissociation. The used running buffer was 1×PBS with 0.05% Tween20. The relative response units (RU, Y-axis) are plotted against time (s, X-axis) and analyzed in a kinetic 1:1 binding model for the monomer receptor binding and with a kinetic heterogenous ligand fit model for the alpha/beta heterodimer binding.
NT indicates the IL-2 polypeptide was not tested.

[3] = mouse, in vivo, iv, 0.8 mg/kg
Description: A single-dose pharmacokinetic/pharmacodynamic experiment was performed in mice. Naïve, 6-8 weeks old, C57Bl/6 mice (Shanghai SLAC Laboratory Animal Co., LTD, Shanghai, China) received a single bolus intravenous (i.v.) injection of 52 nmoles/kg wild type or of modified IL-2 polypeptides. […] At indicated time points, blood samples were collected in the presence of EDTA either via tail vein sampling or via cardiac puncture (end-point).
Blood samples were immediately processed by centrifugation. Plasma samples were cryopreserved at −80° C. until bioanalysis.
Bioanalysis of plasma samples was performed using a qualified human IL-2 LegendPlex bead assay (Biolegend, #740717, #740368, #740758). Concentrations of wild type and of modified IL-2 polypeptides and the internal standard in samples derived from plasma were determined using human IL-2 LegendPlex bead assay. PK data were subjected to a non-compartmental pharmacokinetic analysis by using the Phoenix WinNonlin software (version 6.3, Pharsight, Mountain View, CA). The linear/log trapezoidal rule was applied in obtaining the PK parameters.
The PK parameters were determined by means of non-compartmental analysis (NCA) using R package “PK”. The area under plasma concentration-time curves (AUC0-last) were calculated using the linear trapezoidal rule on the arithmetic means at the different time points while the extrapolation necessary for the AUC0-inf and AUMC 0-Inf was achieved assuming an exponential decay on the last 3 time points.

[4] = tested on: Tregs (CD4+, FoxP3+, CD25Hi); assay: Single-dose pharmacodynamics in mice, Tregs (pSTAT5, Ki67, frequency); type: in vivo, C57Bl/6 mice; conditions: for Tregs % of pSTAT5 positive cells / Ratio Tregs/CD8+: 1 h after injection; for Ratio Tregs/CD8+: pSTAT5 positive cells
Description: (§5) Cell pellets were treated with 1×Lyse/Fix buffer (BD Bioscience, 558050) during 10 min. […] Cells were then permeabilized using cold BD Perm Buffer III and stained with antibodies against either Ki67, Siglec-F, CD4, CD8, FoxP3, CD62L, CD44 or pSTAT5. The FACS (fluorescence activated cell sorting) measurement was done with a Fortessa X-20 Flow Cytometer from BD. For each cell subset indicated below in Table 14, the percentage of pSTAT5 positive cells, and percentage of Ki67 positive cells, cell counts, and cell frequency was determined. [table]

[5] = tested on: CD8+ Teff (CD3+, CD8+); assay: Single-dose pharmacodynamics in mice, CD8+ Teff (pSTAT5, Ki67, frequency); type: in vivo, C57Bl/6 mice; conditions: for CD8+ % of pSTAT5 positive cells: 1 h after injection
Description: as §5

[6] = target: T2, alpha/beta heterodimer IL2 receptor (Homo sapiens, UniProt P14784); assay: Surface plasmon resonance binding to IL2R alpha/beta heterodimer
T2 construct: purchased Abcam Ab221397; Ab174003
T2 sequence (P14784 27-239 limits assumed): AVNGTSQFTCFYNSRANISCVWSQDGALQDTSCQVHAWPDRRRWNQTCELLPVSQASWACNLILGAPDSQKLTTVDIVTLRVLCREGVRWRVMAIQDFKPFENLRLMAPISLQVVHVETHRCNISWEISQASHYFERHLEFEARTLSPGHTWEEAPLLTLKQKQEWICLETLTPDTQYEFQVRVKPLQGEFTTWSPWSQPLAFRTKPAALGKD
Description: as §3, §4
Additional surface plasmon resonance experiments were performed to determine the binding characteristics of the modified IL-2 polypeptides with IL2R alpha/beta heterodimers. The experiments were performed as indicated above, but the monomeric subunits were replaced with the IL2R heterodimers. […] In the table below, NT indicates the composition was not tested.
The secondary interactions between IL-2R heterodimers and the modified IL-2 polypeptides were also measured. […] In the table below, NT indicates the composition was not tested.

[7] = tested on: Treg cells (CD4+, CD25Hi, FoxP3+); assay: pStat5 induction in human primary pan T-cells, T-Reg subset; type: cell-based
Description: as §1, §2

[8] = target: T3, human IL2 receptor alpha (CD25) (Homo sapiens, UniProt P01589); assay: Surface plasmon resonance binding to IL-2R alpha monomer subunit; conditions: SPR
T3 construct: purchased Abcam Ab221397
T3 sequence (P01589 22-272): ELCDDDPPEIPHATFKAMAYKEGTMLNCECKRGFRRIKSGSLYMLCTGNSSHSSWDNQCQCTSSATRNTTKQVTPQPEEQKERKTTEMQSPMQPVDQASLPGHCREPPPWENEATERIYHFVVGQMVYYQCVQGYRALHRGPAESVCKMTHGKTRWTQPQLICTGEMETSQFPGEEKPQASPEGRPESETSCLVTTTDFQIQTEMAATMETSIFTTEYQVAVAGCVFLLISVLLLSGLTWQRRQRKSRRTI
Description: as §3, §4
NT indicates the IL-2 polypeptide as not tested.

[9] = mice, 0.8 mg/kg, at peak time point

EC50 ([1]; pStat5 MFI, 20 min to 40 min stimulation): 9.07 nM
Ka ([2]; Beta (CD122) monomer): 319000 M⁻¹ s⁻¹
koff (dissociation rate constant) ([2]; Beta (CD122) monomer): 0.289 s⁻¹
Kd ([2]; as stated in text (FIG. 3), read-out: Kd, β subunit of the IL-2 receptor): ~900 nM
Ka ([6]; primary interaction): 8.01e+06 M⁻¹ s⁻¹
dissociation rate constant (koff, 1/s) ([6]; primary interaction): 0.00175 s⁻¹
Ka ([6]; secondary interaction): 5.13e+06 M⁻¹ s⁻¹
EC50 ([7]; pStat5 MFI, 20 min to 40 min stimulation, read-out: Tregs EC50): 0.019 nM
Ka ([8]; Alpha (CD25) monomer): 6.74e+06 M⁻¹ s⁻¹
dissociation rate constant (koff) ([8]; Alpha (CD25) monomer): 0.154 s⁻¹
Kd ([8]; read-out: observed Kd with IL-2Rα): 23 nM
Substance: Aldesleukin: aldesleukin (SEQ ID NO: 2), comparator IL-2
CD8/Tregs ([1]; ratio of CD8+ EC50 to Tregs EC50): 477
AUC0-last [3]: 1227 ng·h/mL
AUCD [3]: 1534 (ng/mL*h)*(mg/kg)
Cl [3]: 10.85 mL/min/kg
MRTlast [3]: 36.6 min
T1/2 [3]: 20.8 min
Timepoint at Peak Tregs ([4]; Ki67+ cells, mice, 0.8 mg/kg): 20 h
Timepoint at Peak Tregs ([4]; frequency within CD3+, mice, 0.8 mg/kg): 20 h
Tregs % of Ki67+ positive cells [4, 9]: 28.3 ± 3.7%
Tregs % of Tregs within CD3+ [4, 9]: 3.52 ± 0.4%
Tregs % of pSTAT5 positive cells ([4]; mice, 0.01 mg/kg): 81.0 ± 5.8%
Tregs % of pSTAT5 positive cells ([4]; mice, 0.03 mg/kg): 86.9 ± 5.2%
Tregs % of pSTAT5 positive cells ([4]; mice, 0.1 mg/kg): 91.1 ± 2.9%
Tregs % of pSTAT5 positive cells ([4]; mice, 0.3 mg/kg): 96.2 ± 1.3%
Tregs % of pSTAT5 positive cells ([4]; mice, 0.8 mg/kg): 93.3 ± 3.8%
Ratio Tregs/CD8+ ([4]; 0.01 mg/kg): 3.8
Ratio Tregs/CD8+ ([4]; 0.03 mg/kg): 2.8
Ratio Tregs/CD8+ ([4]; 0.1 mg/kg): 3.1
Ratio Tregs/CD8+ ([4]; 0.3 mg/kg): 1.5
Ratio Tregs/CD8+ ([4]; 0.8 mg/kg): 1.3
CD8+ % of CD8+ within CD3+ ([5]; 0.8 mg/kg, at peak time point): 32.1 ± 3^ %
CD8+ % of Ki67+ positive cells ([5]; 0.8 mg/kg, at peak time point): 19.6 ± 3^ %
CD8+ % of pSTAT5 positive cells ([5]; 0.01 mg/kg): 21.3 ± 6.7%
CD8+ % of pSTAT5 positive cells ([5]; 0.03 mg/kg): 31.3 ± 6.2%
CD8+ % of pSTAT5 positive cells ([5]; 0.1 mg/kg): 29.6 ± 4.4%
CD8+ % of pSTAT5 positive cells ([5]; 0.3 mg/kg): 63.2 ± 9.0%
CD8+ % of pSTAT5 positive cells ([5]; 0.8 mg/kg): 74.1 ± 11%
Timepoint at Peak Teff ([5]; Ki67+ cells, 0.8 mg/kg): 48 h
Timepoint at Peak Teff ([5]; frequency within CD3+, 0.8 mg/kg): 36 h
potency in inducing Treg cells versus Teff cells (in words) ([7]; pStat5 dose response curves): substantially more potent in inducing Treg cells than Teff cells
